Where a name gives a salt, the structure may show the parent alone.
How the values were obtained:
[1] = target: T1, PRS protein (prolyl-tRNA synthetase, PRS portion of EPRS) (Homo sapiens, UniProt P07814); test: PRS enzyme activity inhibition experiment; type: biochemical; conditions: [3H]proline, 37° C., 5 to 10 minutes
T1 construct: the portion corresponding to PRS in cDNA of EPRS was subcloned; made in house
T1 sequence (P07814 1007-1512 limits assumed): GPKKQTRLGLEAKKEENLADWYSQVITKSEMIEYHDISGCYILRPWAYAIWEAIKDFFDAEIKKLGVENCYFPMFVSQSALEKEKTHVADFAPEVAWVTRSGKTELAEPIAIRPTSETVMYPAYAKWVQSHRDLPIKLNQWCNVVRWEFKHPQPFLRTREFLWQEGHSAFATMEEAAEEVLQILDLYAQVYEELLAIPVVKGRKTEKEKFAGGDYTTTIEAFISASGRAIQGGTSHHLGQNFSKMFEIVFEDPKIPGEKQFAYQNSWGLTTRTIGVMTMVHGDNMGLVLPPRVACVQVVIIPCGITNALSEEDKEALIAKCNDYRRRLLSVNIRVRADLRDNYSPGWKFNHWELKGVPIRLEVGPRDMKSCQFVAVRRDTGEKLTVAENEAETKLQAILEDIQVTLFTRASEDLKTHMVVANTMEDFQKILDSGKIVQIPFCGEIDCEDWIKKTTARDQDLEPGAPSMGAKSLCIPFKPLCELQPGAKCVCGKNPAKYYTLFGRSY
Experimental: IC50 values of PRS enzyme activity inhibition of the (2R,3S)-2-(3-(4,5-dichloro-1H-benzo[d]imidazol-1-yl)propyl)piperidin-3-ol monohydrochloride prepared in Example 1-1 were measured as follows.
Specifically, the portion corresponding to PRS in cDNA of EPRS was subcloned, and the obtained high-purity PRS protein was purified and used in the experiment. The compounds (1 μM) prepared in Examples were added into the reaction buffer (20 mM KPO4 (pH 7.4), 6 mM MgAc, 5 mM ATP, […] tRNA, 0.5 mM DTT, 20 mCi[^3H]proline (1 mCi/mL)) and allowed to react at 37° C. for 5 to 10 minutes. The reaction was terminated with 3M paper that was in advance dried by addition of 5% TCA. The radioactivity was measured using a liquid scintillation counter. % Inhibition and IC50 values of the compounds were calculated and analyzed using Microsoft Excel or Sigma Plot 8.0.

[2] = Hygroscopicity test (weight change in desiccators of constant relative humidity); type: physicochemical; set-up: scale not given here; conditions: room temperature, one day
Experimental: The hygroscopicity tests of the acid addition salts prepared in Examples 1-1 to 1-6 and Comparative Example 1 were performed.
After one day, the change in weight was measured, then transferred to another desiccator and the previous experiment was repeated. At this time, for sorption analysis, the weight change was measured by moving the sample from a low-humidity desiccator to a high-humidity desiccator, and for desorption analysis, the weight change was measured by transferring the sample from a high-humidity desiccator with high humidity to a low-humidity desiccator.

[3] = Stability confirmation: severe test with respect to temperature, HPLC peak area of main component; type: physicochemical; conditions: 60° C., relative humidity less than 10%, Monohydrochloride
Experimental: (§1) The acid addition salts prepared in some Examples and Comparative Examples were subjected to stability tests against high temperature and high humidity.
Specifically, the severe tests with respect to temperature were performed by placing 50 mg of a sample in a vial, closing the lid, and then measuring the content of impurities using HPLC (Azura, KNAUER, P6.1 1 L, DAD 6.1 L) after 1 week, 2 weeks, 4 weeks, and 8 weeks while storing in a chamber at 60° C. and a relative humidity of less than 10%.
(§2) At a fixed time after the start of the test, one vial or beaker was taken out from each time point (the number of samples per test: n=1), and impurities were analyzed using HPLC under the conditions shown in Table 3 below. Then, the peak area was determined through integration for all the detected peaks, and then the relative peak area (%) for the main component was calculated and expressed as an average value.

[4] = Stability confirmation: severe test with respect to moisture, HPLC peak area of main component; type: physicochemical; conditions: 93% RH, open beaker, Monohydrochloride
Experimental: as §1
And, the severe tests with respect to moisture were performed by placing 50 mg of a sample in a 10 ml beaker, and measuring the content of impurities using HPLC (Azura, KNAUER, P6.1 1 L, DAD 6.1 L) after 1 week, 2 weeks, 4 weeks, and 8 weeks while storing the sample in a 93% RH desiccator in a state that the lid was not closed so that the sample has sufficient contact with the moisture in the air.
as §2

[5] = Differential scanning calorimetry analysis after severe test with respect to temperature; type: physicochemical; conditions: high temperature condition (60° C.), 1 week and 8 weeks; Monohydrochloride
Experimental: For (2R,3S)-2-(3-(4,5-dichloro-1H-benzo[d]imidazol-1-yl)propyl)piperidin-3-ol monohydrochloride prepared in Example 1-1 and (2R,3S)-2-(3-(4,5-dichloro-1H-benzo[d]imidazol-1-yl)propyl)piperidin-3-ol dihydrochloride prepared in Comparative Example 1, each beaker was taken out 1 week and 8 weeks after the start of the test from the desiccator where the severe tests with respect to temperature were in progress, and the differential scanning calorimetry analysis was performed. At this time, the differential scanning calorimetry analysis was performed using a differential scanning calorimeter (DSC Q20, manufactured by TA Instruments) in a tightly closed pan under nitrogen purge at a scan rate of 10° C./min while raising the temperature from 20° C. to 300° C.

O[C@H]1CCCN[C@@H]1CCCn1cnc2c(Cl)c(Cl)ccc21 [Example 1-1, (2R,3S)-2-(3-(4,5-dichloro-1H-benzo[d]imidazol-1-yl)propyl)piperidin-3-ol Monohydrochloride]
IC50 [1]: 74 nM
weight change, desorption ([2]; 11% RH, Monohydrochloride): 100.8
weight change, desorption ([2]; 33% RH, Monohydrochloride): 101.2
weight change, desorption ([2]; 54% RH, Monohydrochloride): 100.8
weight change, desorption ([2]; 75% RH, Monohydrochloride): 101.7
weight change, sorption ([2]; 11% RH): 100
weight change, sorption ([2]; 33% RH, Monohydrochloride): 100
weight change, sorption ([2]; 54% RH, Monohydrochloride): 101
weight change, sorption ([2]; 75% RH, Monohydrochloride): 101.6
weight change, sorption ([2]; 93% RH, Monohydrochloride): 101.6
relative peak area for the main component (HPLC) ([3]; after 1 week): 99.9%
relative peak area for the main component (HPLC) ([3]; after 2 weeks): 99.8%
relative peak area for the main component (HPLC) ([3]; after 4 weeks): 99.9%
relative peak area for the main component (HPLC) ([3]; after 8 weeks): 99.8%
relative peak area for the main component (HPLC) ([3]; initial): 99.9%
relative peak area for the main component (HPLC) ([4]; after 1 week): 99.8%
relative peak area for the main component (HPLC) ([4]; after 2 weeks): 99.9%
relative peak area for the main component (HPLC) ([4]; after 4 weeks): 99.8%
relative peak area for the main component (HPLC) ([4]; after 8 weeks): 99.9%
relative peak area for the main component (HPLC) ([4]; initial): 99.9%
change in differential scanning calorimetry analysis pattern [5]: does not show any change in differential scanning calorimetry analysis pattern
